Values quoted from earlier work in patent publication US12357592B2, “Compositions and methods for monitoring the treatment of breast disorders” (priority 2018, dated 2025).

System: breast cancer
Conditions: tamoxifen as prevention, given to healthy women; background statement

For `CC/C(=C(\c1ccccc1)c1ccc(OCCN(C)C)cc1)c1ccccc1` [Tamoxifen, (Z)-2-[4-(1,2-diphenyl-1-butenyl)phenoxy]-N,N-dimethylethanamine], the “reduce the risk of breast cancer” value is given as at most 50%.
